# Like-named read-outs stand apart in the source and are kept apart here.
# Experiments:
# [1] = test system: protein levels of Complexes II and IV in PC-3 cells; assay: Mitochondrial Biogenesis Assay after 5-day treatment in PC-3 cells; assay type: cell-based; settings: PC-3 cells, 5-day treatment; maximum concentration tested 100 μM
# Experimental: (§1) Three-fold serial dilutions of compounds were prepared in duplicate in 96-well plates starting at a concentration close to the CC50 value of the compound after 5-day treatment. For compounds with CC50≧100 μM, the starting concentration was 100 μM. PC-3 cells were plated at a density of 2.5×10^3 cells per well in a final assay volume of 100 μL per well with a constant amount of DMSO equal to 0.5%. After 5-day incubation, the cells were analyzed with the MitoSciences MitoBiogenesis™ In-Cell ELISA Kit (catalog #MS642), which uses quantitative immunocytochemistry to measure protein levels of Complexes II and IV in cultured cells. Cells were fixed in a 96-well plate and target proteins were detected with highly-specific, well-characterized monoclonal antibodies. The protein levels were quantified with IRDyee-labeled Secondary Antibodies. IR imaging and quantitation was performed using a LI-COR® Odyssey instrument. All ratios were expressed as a percentage of the 0.5% DMSO control. In cases where cell viability was severely affected, the data for mitochondrial biogenesis was not included for analysis due to significant errors associated with low signals. Chloramphenicol was used as the positive control for the assay.
# [2] = test system: mitochondrial protein levels of Complexes II and IV; assay: as above; assay type: cell-based; settings: human
# Experimental: as §1
# RSV strain A2 = assay: RSV-induced cytopathic effect in Hep2 cells, 384 well method; assay type: cell-based; settings: human respiratory syncytial virus, HEp-2, 120 h
# Experimental: Antiviral activity against RSV is determined using an in vitro cytoprotection assay in Hep2 cells. […] The method used is similar to methods previously described in published literature (Chapman et al., Antimicrob Agents Chemother. 2007, 51(9):3346-53.)
# Compounds were also tested for antiviral activity against RSV in Hep2 cells using a 384 well format. Compounds were diluted in DMSO using a 10-step serial dilution in 3-fold increments via automation in 4 adjacent replicates each. Eight compounds were tested per dilution plate. 0.4 uL of diluted compounds were then stamped via Biomek into 384-well plates (Nunc 142761 or 164730 w/lid 264616) containing 20 μL of media (Mediatech Inc. MEM supplemented with Glutamine, 10% FBS and Pen/Strep). DMSO and a suitable positive control compound, such as 80 μM GS-329467 or 10 μM 427346 was used for the 100% and 0% cell killing controls, respectively.
# Hep2 cells (1.0×10^5 cells/mil) were prepared as above in batch to at least 40 mls excess of the number of sample plates (8 mls cell mix per plate) and infected with vendor supplied (ABI) RSV strain A2 to arrive at an MOI of 1:1000 (virus:cell #) or 1:3000 (vol virus: cell vol). Immediately after addition of virus, the RSV infected Hep2 cell suspension was added to each stamped 384-well plate at 20 μl per well using a uFlow dispenser, giving a final volume of 40 μL/well, each with 2000 infected cells. The plates were then incubated for 5 days at 37° C. and 5% CO2. Following incubation, the plates were equilibrated to room temperature in a biosafety cabinet hood for 1.5 hrs and 40 μL of Cell-Titer Glo viability reagent (Promega) was added to each well via uFlow. Following a10-20 minute incubation, the plates were read using an EnVision or Victor Luminescence plate reader (Perkin-Elmer). The data was then uploaded and analyzed on the Bioinformatics portal under the RSV Cell Infectivity and 8-plate EC50-Hep2-384 or 8-plate EC50-Hep2-Envision protocols.
# HCV replicon cells = assay: HCV EC50 determination, replicon cells luciferase assay; assay type: cell-based; settings: Hepatitis C virus
# Experimental: Replicon cells were seeded in 96-well plates at a density of 8×10^3 cells per well in 100 μL of culture medium, excluding Geneticin. Compound was serially diluted in 100% DMSO and then added to the cells at a 1:200 dilution, achieving a final concentration of 0.5% DMSO and a total volume of 200 μL. Plates were incubated at 37° C. for 3 days, after which culture medium was removed and cells were lysed in lysis buffer provided by Promega's luciferase assay system. Following the manufacturer's instruction, 100 μL of luciferase substrate was added to the lysed cells and luciferase activity was measured in a TopCount luminometer.
# HCV Δ21 NS5b polymerase = HCV Δ21 NS5b polymerase (Hepatitis C virus genotype 1b (isolate Con1) (HCV), UniProt Q9WMX2); assay: HCV IC50 determination, NS5b polymerase assay; assay type: biochemical; settings: wild type or S282T mutant enzyme not specified, nucleoside triphosphates
# Experimental: Assay Protocol: Either wild type or S282T (Migliaccio, et al., J. Biol. Chem. 2003, 49164-49170; Klumpp, et al., J. Biol. Chem. 2006, 3793-3799) mutant polymerase enzyme was used in this assay. NS5b polymerase assay (40 μL) was assembled by adding 28 μL polymerase mixture (final concentration: 50 mM Tris-HCl at pH 7.5, 10 mM KCl, 5 mM MgCl2, 1 mM DTT, 10 mM EDTA, 4 ng/μL of RNA template, and 75 nM HCV Δ21 NS5b polymerase) to assay plates followed by 4 μL of compound dilution. The polymerase and compound were pre-incubated at 35° C. for 10 minute before the addition of 8 μL of nucleotide substrate mixture (33P-[…] competing nucleotide at KM and 0.5 mM of the remaining three nucleotides). The assay plates were covered and incubated at 35° C. for 90 min. Reactions were then filtered through 96-well DEAE-81 filter plates via vacuum. The filter plates were then washed under vacuum with multiple volumes of 0.125 M NaHPO4, water, and ethanol to remove unincorporated label. Plates were then counted on TopCount to assess the level of product synthesis over background controls. The IC50 value is determined using Prism fitting program.
# [3] = Hep2 cells, RSV A2, 5 days, Cell-Titer Glo, 384 well format, read-out: EC50
compound,measurement,setting,value
CC(C)OC(=O)[C@H](C)N[P@](=O)(OC[C@H]1O[C@@](C#N)(n2ccc(N)nc2=O)[C@](C)(O)[C@@H]1O)Oc1ccccc1 [Compound 30],50% inhibition of mitochondrial protein levels,[1],> 100 µM
same,CC50 at 5 days,"[2]; mitochondrial toxicity, PC-3 cells, 5-day treatment, maximum concentration tested 100 μM, read-out: CC50",> 100 µM
same,EC50,RSV strain A2,200 µM
same,EC50,HCV replicon cells; 72 h,2600 nM
same,EC50,HCV replicon cells; read-out: EC50 (antiviral activity),2600 nM
same,EC50,HCV replicon cells; read-out: HCV EC50,2600 nM
N#C[C@@]1(n2ccc(N)nc2=O)O[C@H](CO)[C@@H](O)[C@H]1O [Compound 4],EC50,RSV strain A2; [3],11.3 µM
"C[C@@]1(O)[C@H](O)[C@@H](CO)O[C@H]1n1ccc(N)nc1=O [Compound A, reference compound]",CC50 at 5 days,[2],43 µM
same,EC50,"HCV replicon cells; HCV replicon, read-out: EC50 (antiviral activity)",2500 nM
same,EC50,"HCV replicon cells; replicon, comparison table R6=H vs R6=CN, read-out: HCV EC50",2500 nM
C[C@@]1(O)[C@H](O)[C@@H](COP(=O)(O)OP(=O)(O)OP(=O)(O)O)O[C@@]1(C#N)n1ccc(N)nc1=O [Compound 28],IC50,HCV Δ21 NS5b polymerase,18 µM
C[C@H]1[C@H](O)[C@@H](CO)O[C@@]1(C#N)n1ccc(=O)[nH]c1=O [Compound 15],EC50,RSV strain A2; [3],200 µM
CO[C@@H]1[C@H](O)[C@@H](CO)O[C@@]1(C#N)n1ccc(N)nc1=O [Compound 13],EC50,RSV strain A2; [3],200 µM
"O=C(N[C@H](CO)[C@H](O)c1ccc([N+](=O)[O-])cc1)C(Cl)Cl [Chloramphenicol, reference compound]",CC50 at 5 days,[2],2.5 µM
CO[C@@H]1[C@H](O)[C@@H](CO)O[C@@]1(C#N)n1ccc(=O)[nH]c1=O [Compound 12],EC50,RSV strain A2; [3],200 µM
C[C@@H](O)[C@H]1O[C@@](C#N)(n2ccc(N)nc2=O)[C@@H](O)[C@@H]1O [Compound 11],EC50,RSV strain A2; [3],200 µM
C[C@@H](O)[C@H]1O[C@@](C#N)(n2ccc(=O)[nH]c2=O)[C@@H](O)[C@@H]1O [Compound 10],EC50,RSV strain A2; [3],200 µM
CC(C)OC(=O)[C@H](C)NP(=O)(OC[C@H]1O[C@@](C#N)(n2ccc(=O)[nH]c2=O)[C@](C)(O)[C@@H]1O)Oc1ccccc1 (stereo partly drawn) [Compound 29],EC50,HCV replicon cells; 72 h,8200 nM
CC(C)OC(=O)[C@H](C)N[P@](=O)(OC[C@H]1O[C@@](C#N)(n2ccc(N)nc2=O)[C@](C)(O)[C@@H]1OC(=O)C(C)C)Oc1ccccc1 [Compound 35],EC50,RSV strain A2,200 µM
C[C@@]1(O)[C@H](O)[C@@H](COP(=O)(O)OP(=O)(O)OP(=O)(O)O)O[C@@]1(C#N)n1ccc(=O)[nH]c1=O [Compound 27],IC50,HCV Δ21 NS5b polymerase,27 µM
N#C[C@@]1(n2ccc(=O)[nH]c2=O)O[C@H](CO)[C@@H](O)[C@H]1O [Compound 3],EC50,RSV strain A2; [3],10.9 µM

# From patent publication US8877733B2, “1′-substituted pyrimidine N-nucleoside analogs for antiviral treatment” (Gilead Sciences, Inc., priority 2011, dated 2014)
